Where “and” joins values, the source holds several entries; their conditions need not be identical. Identical values can stand only once.
Columns and labels:
[1] = test system: GhRbohD; set-up: species or system Gossypium hirsutum cv. Lvmian; conditions: in vivo
[2] = test system: GhMPK6; set-up: species or system Gossypium hirsutum cv. Lvmian; conditions: in vivo

For O=C(NO)c1ccccc1 [Compound 1, benzohydroxamic acid], the “GhRbohD expression in cotton roots (Fig. 3f) Mean” value [1] was 6.888 and 6.864 and 7.067 and 8.206 and the “GhMPK6 expression in cotton roots (Fig. 3e) Mean” value [2] was 2.326 and 2.211 and 2.747 and 2.402.
